{"source": "ChEMBL document CHEMBL1125172", "about": "“Voronoi binding site model of a polycyclic aromatic hydrocarbon binding protein” (J Med Chem, 1990);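 also: competitive displacement of radiolabeled [3H]benzo[a]pyrene from its binding site on the protein taken from mouse liver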"}
{"system": "Polycyclic aromatic hydrocarbon binding protein", "details": "Mus musculus", "description": "Competition for [3H]benzo[a]pyrene-binding site of polycyclic aromatic hydrocarbon binding protein (PBP) from mouse liver"}
{"smiles": "O[C@H]1C=Cc2c(cc3ccc4cccc5ccc2c3c45)[C@@H]1O", "Delta Gm": 18.4}
{"smiles": "c1ccc2cc3c4ccccc4c4ccccc4c3cc2c1", "Delta Gm": 18.6}
{"smiles": "C1=Cc2cc3cccc4ccc5ccc1c2c5c43", "Delta Gm": 15.8}
{"smiles": "c1ccc2c(c1)cc1ccc3cccc4ccc2c1c34", "Delta Gm": 19}
{"smiles": "O[C@H]1c2cccc3ccc4c5ccccc5cc(c4c23)[C@@H]1O", "Delta Gm": 17.4}
{"smiles": "Nc1ccc2c(c1)Cc1ccccc1-2", "Delta Gm": 11.9}
{"smiles": "Nc1cccc2ccccc12", "Delta Gm": 14.4}
{"smiles": "c1ccc2c(c1)-c1cccc3cccc-2c13", "Delta Gm": 17.8}
{"smiles": "O[C@@H]1C=Cc2cc3ccc4cccc5ccc(c2[C@H]1O)c3c45", "Delta Gm": 18.9}
{"smiles": "Oc1ccc2cc3ccc4cccc5ccc(c2c1)c3c45", "Delta Gm": 18.3}
{"smiles": "Cc1ccc2cc3c(ccc4ccccc43)c3c2c1CC3", "Delta Gm": 17.4}
{"smiles": "O[C@H]1C=C2c3ccccc3-c3cccc(c32)[C@@H]1O", "Delta Gm": 17.7}
{"smiles": "c1ccc2c(c1)ccc1c3ccccc3ccc21", "Delta Gm": 17.9}
{"smiles": "Nc1cccc2cc3ccccc3cc12", "Delta Gm": 15.2}
{"smiles": "Nc1cc2ccccc2c2ccccc12", "Delta Gm": 15.2}
{"smiles": "c1cc2ccc3cccc4ccc(c1)c2c34", "Delta Gm": 16.3}
